# In patent publication US20240398781A1, “SPIROCYCLIC CYCLIC MODULATORS OF CHOLESTEROL BIOSYNTHESIS AND THEIR USE FOR PROMOTING REMYELINATION” (GENENTECH, INC., priority 2021, published 2024):
# Like-named read-outs stand apart in the source and are kept apart here.
# Experiments:
# [1] = target: human emopamil binding protein and human 7-dehydrocholesterol reductase co-expressing cells (hEBP-DHCR7 membrane) (Homo sapiens (Human), UniProt Q15125); assay: Radioligand filter binding assay on hEBP-DHCR7 membrane; settings: [3H]-(S)-6-(2-Methyl-3-(6-(trifluoromethyl)pyridin-3-yl)propyl)-2-thia-6-azaspiro[3.4]octane 2,2-dioxide radioligand, HEK293 membrane co-expressing hEBP and hDHCR7
# human emopamil binding protein and human 7-dehydrocholesterol reductase co-expressing cells (hEBP-DHCR7 membrane), sequence (Q15125 whole entry): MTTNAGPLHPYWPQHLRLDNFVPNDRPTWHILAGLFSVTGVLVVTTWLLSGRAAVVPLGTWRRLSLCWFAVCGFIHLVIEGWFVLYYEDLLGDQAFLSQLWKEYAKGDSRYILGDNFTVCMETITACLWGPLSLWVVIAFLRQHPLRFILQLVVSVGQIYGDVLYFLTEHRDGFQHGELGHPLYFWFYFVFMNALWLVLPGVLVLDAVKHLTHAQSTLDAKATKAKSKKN
# Outline: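 HEK293 cells transiently co-expressing human EBP and DHCR7 supplied whole-cell membranes (10 μg/well), incubated 3 h at 22 °C with [3H]-labelled spiro-octane dioxide ligand (added at 25 nM) and compound (0.06-5000 nM final, 8 doses, n=2). Bound ligand was collected on PEI-treated GF/B filters and counted by scintillation. IC50 was Hill-fitted from % inhibition and reported as Ki.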
# [2] = tested on: EBP (zymostenol accumulation in EpiSC-derived OPCs); assay: GC/MS-based sterol profiling, zymostenol accumulation in OPCs; type: cell-based, mouse; settings: EpiSC-derived OPCs, 24 hr treatment, 8 doses from 0.15 nM to 333 nM, read-out: Zymostenol GCMS EC50
# Outline: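 EpiSC-derived OPCs (100,000/well) were treated 24 h in N2B27 without growth factors. Sterols were TMS-derivatized and analysed by GC/MS full-scan EI, quantified against cholesterol-d7. Zymostenol was normalized to the level after 24 h with 100 nM positive control reference.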
Ki [1] [nM],"EC50 ([2]; Mus musculus, 24 h) [nM]",EC50 [2] [nM],SMILES
82,49,–,"Cn1nc(C(F)(F)F)cc1[C@H]1CC[C@@H](N2CC[C@]3(CCS(=O)(=O)C3)C2)CC1 (single isomer, unassigned) [38A*]"
21,23,–,"O=S1(=O)CC2(CCN([C@H]3CO[C@@H](c4ccc(C(F)(F)F)cc4)C3)C2)C1 (stereo in doubt) [19A*, 6-((3R,5R)-5-(4-(Trifluoromethyl)phenyl)tetrahydrofuran-3-yl)-2-thia-6-azaspiro[3.4]octane 2,2-dioxide]"
32,12,–,"Cc1cc(C(F)(F)F)ncc1[C@H]1CC[C@@H](N2CCC3(C2)CS(=O)(=O)C3)CC1 [Compound 21A, 6-((1s,4s)-4-(4-Methyl-6-(trifluoromethyl)pyridin-3-yl)cyclohexyl)-2-thia-6-azaspiro[3.4]octane 2,2-dioxide]"
270,26,–,"Cn1nc(C(F)(F)F)cc1[C@H]1CC[C@H](N2CCC3(CC2)CS(=O)(=O)C3)CC1 [Compound 25B, 7-((1r,4r)-4-(1-methyl-3-(trifluoromethyl)-1H-pyrazol-5-yl)cyclohexyl)-2-thia-7-azaspiro[3.5]nonane 2,2-dioxide]"
58,35,–,"O=S1(=O)CC2(CCN([C@H]3CCCN(c4ccc(C(F)(F)F)cc4)C3)C2)C1 (single isomer, unassigned) [22B*]"
18,110,–,"O=S1(=O)CC2(CCN([C@@H]3CO[C@H](c4ccc(C(F)(F)F)cc4)C3)C2)C1 (stereo in doubt) [19C*, 6-((3S,5S)-5-(4-(Trifluoromethyl)phenyl)tetrahydrofuran-3-yl)-2-thia-6-azaspiro[3.4]octane 2,2-dioxide]"
23,14,–,"O=S1(=O)CC2(CCN(C3CCN(c4ccc(C(F)(F)F)cn4)CC3)C2)C1 [Compound 6, 6-(1-(5-(trifluoromethyl)pyridin-2-yl)piperidin-4-yl)-2-thia-6-azaspiro[3.4]octane 2,2-dioxide]"
530,240,–,"CC(C)n1cc(C(F)(F)F)nc1[C@H]1CC[C@H](N2CCC3(C2)CS(=O)(=O)C3)C1 (single isomer, unassigned) [20A*]"
420,310,–,"CC(C)n1cc(C(F)(F)F)nc1[C@H]1CC[C@@H](N2CCC3(C2)CS(=O)(=O)C3)C1 (single isomer, unassigned) [20C*]"
28,43,–,"O=S1(=O)CC2(CCN([C@H]3CC[C@@H](c4ccc(C(F)(F)F)nc4)CC3)C2)C1 [Compound 14B, 6-((1s,4s)-4-(6-(Trifluoromethyl)pyridin-3-yl)cyclohexyl)-2-thia-6-azaspiro[3.4]octane 2,2-dioxide]"
34,11,–,"O=S1(=O)CC2(CCN([C@H]3CC[C@H](c4cc(C(F)(F)F)nn4C4CC4)CC3)C2)C1 [Compound 12A, 6-((1r,4r)-4-(1-Cyclopropyl-3-(trifluoromethyl)-1H-pyrazol-5-yl)cyclohexyl)-2-thia-6-azaspiro[3.4]octane 2,2-dioxide]"
11,7,–,"O=S1(=O)CC2(CCN(C3CCN(c4ncc(C(F)(F)F)cc4F)CC3)C2)C1 [Compound 32, 6-(1-(3-fluoro-5-(trifluoromethyl)pyridin-2-yl)piperidin-4-yl)-2-thia-6-azaspiro[3.4]octane 2,2-dioxide]"
28,9.8,–,"CC(C)n1nc(-c2cncc(OC(F)F)c2)cc1[C@H]1CC[C@@H](N2CCC3(C2)CS(=O)(=O)C3)CC1 [Compound 33B, (Cis)-6-(4-(3-(5-(Difluoromethoxy)pyridin-3-yl)-1-isopropyl-1H-pyrazol-5-yl)cyclohexyl)-2-thia-6-azaspiro[3.4]octane 2,2-dioxide]"
15.8,2.1,–,"O=S1(=O)CC2(CCN([C@H]3CC[C@H](c4ccc(C(F)(F)F)cc4)CC3)C2)C1 [Compound 3A, 6-((1r,4r)-4-(4-(trifluoromethyl)phenyl)cyclohexyl)-2-thia-6-azaspiro[3.4]octane 2,2-dioxide]"
26.6,3,–,"CC(C)n1nc(C(F)(F)F)cc1[C@@H]1CC[C@H](N2CCC3(C2)CS(=O)(=O)C3)C1 (single isomer, unassigned) [10C*]"
21,31,–,"O=S1(=O)CC2(CCN([C@H]3CC[C@@H](c4cc(C(F)(F)F)nn4C4CCC4)CC3)C2)C1 [Compound 23A, 6-((1s,4s)-4-(1-Cyclobutyl-3-(trifluoromethyl)-1H-pyrazol-5-yl)cyclohexyl)-2-thia-6-azaspiro[3.4]octane 2,2-dioxide]"
50,60,–,"Cn1nc(C(F)(F)F)cc1[C@H]1CC[C@@H](N2CC[C@@]3(CCS(=O)(=O)C3)C2)CC1 (single isomer, unassigned) [38B*]"
14,2,–,"O=S1(=O)CC2(CCN([C@@H]3CCCN(c4ccc(C(F)(F)F)cc4)C3)C2)C1 (single isomer, unassigned) [22A*]"
230,7.1,–,"Cc1nc(C(F)(F)F)ccc1N1CCC(N2CCC3(C2)CS(=O)(=O)C3)CC1 [Compound 29, 6-(1-(2-methyl-6-(trifluoromethyl)pyridin-3-yl)piperidin-4-yl)-2-thia-6-azaspiro[3.4]octane 2,2-dioxide]"
59,4,–,"O=S1(=O)CC2(CCN([C@H]3CC[C@@H](c4cc(C(F)(F)F)nn4C4CC4)CC3)CC2)C1 [Compound 40A, 7-((1r,4r)-4-(1-cyclopropyl-3-(trifluoromethyl)-1H-pyrazol-5-yl)cyclohexyl)-2-thia-7-azaspiro[3.5]nonane 2,2-dioxide]"
260,23,–,"CCn1nc(-c2ccc(C(F)(F)F)nc2)nc1[C@H]1CC[C@@H](N2CCC3(C2)CS(=O)(=O)C3)CC1 [36B*, 6-((1s,4s)-4-(1-ethyl-3-(6-(trifluoromethyl)pyridin-3-yl)-1H-1,2,4-triazol-5-yl)cyclohexyl)-2-thia-6-azaspiro[3.4]octane 2,2-dioxide]"
56,4,–,"CCn1nc(C(F)(F)F)cc1[C@H]1CC[C@H](N2CCC3(C2)CS(=O)(=O)C3)CC1 [Compound 15, 6-((1r,4r)-4-(1-Ethyl-3-(trifluoromethyl)-1H-pyrazol-5-yl)cyclohexyl)-2-thia-6-azaspiro[3.4]octane 2,2-dioxide]"
69.3,12,–,"Cn1nc(C(F)(F)F)cc1[C@H]1CC[C@H](N2CCC3(C2)CS(=O)(=O)C3)CC1 [Compound 2B, 6-((1r,4r)-4-(1-methyl-3-(trifluoromethyl)-1H-pyrazol-5-yl)cyclohexyl)-2-thia-6-azaspiro[3.4]octane 2,2-dioxide]"
23.5,4.1,–,"CC(C)n1nc(-c2cncc(C(F)(F)F)c2)cc1[C@@H]1CC[C@@H](N2CCC3(C2)CS(=O)(=O)C3)C1 (single isomer, unassigned) [13C*]"
30,7.5,–,"Cc1cc(C(F)(F)F)ncc1N1CCC(N2CCC3(C2)CS(=O)(=O)C3)CC1 [Compound 28, 6-(1-(4-Methyl-6-(trifluoromethyl)pyridin-3-yl)piperidin-4-yl)-2-thia-6-azaspiro[3.4]octane 2,2-dioxide]"
80,–,40,"Cn1nc(C(F)(F)F)cc1[C@H]1CC[C@H](N2CC[C@@]3(CCS(=O)(=O)C3)C2)CC1 (single isomer, unassigned) [38D*]"
12,9,–,"O=S1(=O)CC2(CCN([C@H]3CC[C@H](c4cc(C(F)(F)F)nn4C4CCC4)CC3)C2)C1 [Compound 23B, 6-((1r,4r)-4-(1-Cyclobutyl-3-(trifluoromethyl)-1H-pyrazol-5-yl)cyclohexyl)-2-thia-6-azaspiro[3.4]octane 2,2-dioxide]"
51.8,2.5,–,"O=S1(=O)CC2(CCN(C3CCN(c4ccc(C(F)(F)F)cc4)CC3)C2)C1 [Compound 4, 6-(1-(4-(trifluoromethyl)phenyl)piperidin-4-yl)-2-thia-6-azaspiro[3.4]octane 2,2-dioxide]"
12,38,–,"Cn1nc(C(F)(F)F)cc1[C@H]1CC[C@H](N2CCC[C@]3(CCS(=O)(=O)C3)C2)CC1 (single isomer, unassigned) [26B*]"

SMILES,Ki [1] [nM],"EC50 ([2]; Mus musculus, 24 h) [nM]",EC50 [2] [nM]
"CC(C)n1nc(C2CC2)nc1[C@H]1CC[C@H](N2CCC3(C2)CS(=O)(=O)C3)C1 (single isomer, unassigned) [18B*, 6-(3-(3-cyclopropyl-1-isopropyl-1H-1,2,4-triazol-5-yl)cyclopentyl)-2-thia-6-azaspiro[3.4]octane 2,2-dioxide]",650,200,–
"CC(C)n1nc(C2CC2)nc1[C@H]1CC[C@@H](N2CCC3(C2)CS(=O)(=O)C3)C1 (single isomer, unassigned) [18D*, 6-(3-(3-cyclopropyl-1-isopropyl-1H-1,2,4-triazol-5-yl)cyclopentyl)-2-thia-6-azaspiro[3.4]octane 2,2-dioxide]",1180,120,–
"Cc1cc(F)cnc1N1CCC(N2CCC3(C2)CS(=O)(=O)C3)CC1 [Compound 31, 6-(1-(5-fluoro-3-methylpyridin-2-yl)piperidin-4-yl)-2-thia-6-azaspiro[3.4]octane 2,2-dioxide]",84,32,–
